The results in this text go back to patent US20120142667A1, “PYRIMIDINE DERIVATIVES AS ZAP-70 INHIBITORS” (priority 2009, published 2012).

SMILES strings stand for the structures. Counter-ions that a name gives are not always drawn.

The first test deals with Calcium Ion Release in Cells. In words: calcium release assay (measurement of calcium ion release in cells). The following applies: calcium release assay as described in WO-A 2009/080638. In kind it is cell-based.
For orientation: IC50 means the concentration that gives 50% inhibition. Take `COc1ccc(OC)c(Nc2ncc(Cl)c(Nc3ccccc3NS(C)(=O)=O)n2)c1` [Example 16, N-(2-(5-chloro-2-(2,5-dimethoxyphenylamino)pyrimidin-4-ylamino)phenyl)methanesulfonamide hydrochloride]: the concentration for half-maximal inhibition (IC50) was no more than 1000 nM.

Take `COc1ccc(Nc2nc(Nc3cnc(OCCO)cc3OC)ncc2Cl)c(NS(C)(=O)=O)c1` [Example 83, N-(2-(5-chloro-2-(6-(2-hydroxyethoxy)-4-methoxypyridin-3-ylamino)pyrimidin-4-ylamino)-5-methoxyphenyl)methanesulfonamide]: the IC50 was no more than 1000 nM.

`COc1ccc(Nc2nc(Nc3ccc(OCCO)cc3C)ncc2Cl)c(NS(C)(=O)=O)c1` [Example 73, N-(2-(5-chloro-2-(4-(2-hydroxyethoxy)-2-methylphenylamino)pyrimidin-4-ylamino)-5-methoxyphenyl)methanesulfonamide]: the IC50 was no more than 1000 nM.

As for `COc1ccc(Nc2nc(Nc3cccc(OCCF)c3C)ncc2Cl)c(NS(C)(=O)=O)c1` [Example 92, N-(2-(5-chloro-2-(3-(2-fluoroethoxy)-2-methylphenylamino)pyrimidin-4-ylamino)-5-methoxyphenyl)methanesulfonamide], the half-inhibitory concentration (IC50) is no more than 1000 nM.

In the next test the target is T1, ZAP-70 (Homo sapiens, UniProt P43403).
T1 construct: endogenous in cells; host or cells: cell lysate
T1 sequence (P43403 1-619): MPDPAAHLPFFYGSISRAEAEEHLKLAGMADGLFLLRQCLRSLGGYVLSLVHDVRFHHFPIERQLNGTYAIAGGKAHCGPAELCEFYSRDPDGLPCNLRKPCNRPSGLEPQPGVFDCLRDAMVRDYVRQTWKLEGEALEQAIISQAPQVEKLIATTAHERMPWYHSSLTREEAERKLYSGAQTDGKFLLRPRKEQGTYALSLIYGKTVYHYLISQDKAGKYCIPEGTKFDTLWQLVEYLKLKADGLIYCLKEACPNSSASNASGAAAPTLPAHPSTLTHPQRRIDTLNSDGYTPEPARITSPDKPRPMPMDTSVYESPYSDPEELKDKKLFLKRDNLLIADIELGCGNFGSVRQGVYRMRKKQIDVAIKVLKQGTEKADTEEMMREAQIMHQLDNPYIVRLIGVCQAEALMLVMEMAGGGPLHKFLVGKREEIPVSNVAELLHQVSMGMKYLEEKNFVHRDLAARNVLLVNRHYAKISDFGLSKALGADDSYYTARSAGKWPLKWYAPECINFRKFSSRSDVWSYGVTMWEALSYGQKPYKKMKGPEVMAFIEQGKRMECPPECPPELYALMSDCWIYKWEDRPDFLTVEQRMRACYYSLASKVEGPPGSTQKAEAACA
In words: ZAP-70 kinobeads assay. It counts as binding. Particulars: cell lysate. The method, then:
The compounds of the present invention as described in the previous examples can be tested in the ZAP-70 kinobeads assay as described (EP-A 1862802 and WO-A 2007/137867). Briefly, test compounds (at various concentrations) and the affinity matrix with the immobilized aminopyrido-pyrimidine ligand 24 are added to cell lysate aliquots and allowed to bind to the proteins in the lysate sample. After the incubation time the beads with captured proteins are separated from the lysate. Bound proteins are then eluted and the presence ZAP-70 is detected and quantified using a specific antibody in a dot blot procedure and the Odyssey infrared detection system.
`COc1ccc(OC)c(Nc2ncc(Cl)c(Nc3ccccc3NS(C)(=O)=O)n2)c1` [Example 16, N-(2-(5-chloro-2-(2,5-dimethoxyphenylamino)pyrimidin-4-ylamino)phenyl)methanesulfonamide hydrochloride]: the IC50 was 100 to 1000 nM.

With `COc1ccc(Nc2nc(Nc3cnc(OCCO)cc3OC)ncc2Cl)c(NS(C)(=O)=O)c1` [Example 83, N-(2-(5-chloro-2-(6-(2-hydroxyethoxy)-4-methoxypyridin-3-ylamino)pyrimidin-4-ylamino)-5-methoxyphenyl)methanesulfonamide], the IC50 was no more than 100 nM.

Compound `COc1ccc(Nc2nc(Nc3ccc(OCCO)cc3C)ncc2Cl)c(NS(C)(=O)=O)c1` [Example 73, N-(2-(5-chloro-2-(4-(2-hydroxyethoxy)-2-methylphenylamino)pyrimidin-4-ylamino)-5-methoxyphenyl)methanesulfonamide] showed an IC50 of no more than 100 nM.

`COc1ccc(Nc2nc(Nc3cccc(OCCF)c3C)ncc2Cl)c(NS(C)(=O)=O)c1` [Example 92, N-(2-(5-chloro-2-(3-(2-fluoroethoxy)-2-methylphenylamino)pyrimidin-4-ylamino)-5-methoxyphenyl)methanesulfonamide] registered an IC50 of 100 to 1000 nM.

For the compound `COc1ccc(Nc2nc(Nc3cc(OC)ccc3OC)ncc2Br)c(NS(C)(=O)=O)c1` [Example 23, N-(2-(5-bromo-2-(2,5-dimethoxyphenylamino)pyrimidin-4-ylamino)-5-methoxyphenyl)methanesulfonamide], the concentration for half-maximal inhibition (IC50) was 100 to 1000 nM.

With `COc1ccc(Nc2nc(Nc3cc(OC)c(CC(=O)O)cc3OC)ncc2Cl)c(NS(C)(=O)=O)c1` [Example 100, 2-(4-((5-chloro-4-((4-methoxy-2-(methylsulfonamido)phenyl)amino)pyrimidin-2-yl)amino)-2,5-dimethoxyphenyl)acetic acid], the half-maximal inhibitory concentration (IC50) was no more than 100 nM.

In turn, `COc1ccc(C)c(Nc2ncc(F)c(Nc3ccccc3NS(C)(=O)=O)n2)c1` [Example 13, N-(2-(5-fluoro-2-(5-methoxy-2-methylphenylamino)pyrimidin-4-ylamino)phenyl)methanesulfonamide] returned an IC50 of 1000 to 10000 nM.

For the compound `COc1ccc(Nc2nc(Nc3ccc(F)c(F)c3OC)ncc2Cl)c(NS(C)(=O)=O)c1` [Example 46, N-(2-(5-chloro-2-(3,4-difluoro-2-methoxyphenylamino)pyrimidin-4-ylamino)-5-methoxyphenyl)methanesulfonamide], the concentration for half-maximal inhibition (IC50) is 1000 to 10000 nM.

As for `COc1ccc(Nc2nc(Nc3cc(OC)c(F)cc3F)ncc2Cl)c(NS(C)(=O)=O)c1` [Example 58, N-(2-(5-chloro-2-(2,4-difluoro-5-methoxyphenylamino)pyrimidin-4-ylamino)-5-methoxyphenyl)methanesulfonamide hydrochloride], the IC50 is 100 to 1000 nM.

As to `COc1ccc(Nc2nc(Nc3cccc(F)c3F)ncc2Cl)c(NS(C)(=O)=O)c1` [Example 60, N-(2-(5-chloro-2-(2,3-difluorophenylamino)pyrimidin-4-ylamino)-5-methoxyphenyl)methanesulfonamide hydrochloride], the IC50 lay within 1000 to 10000 nM.

The compound `COc1ccc(OC)c(Nc2ncc(Br)c(Nc3ccccc3NS(C)(=O)=O)n2)c1` [Example 7, N-(2-(5-bromo-2-(2,5-dimethoxyphenylamino)pyrimidin-4-ylamino)phenyl)methanesulfonamide] had a 50% inhibitory concentration (IC50) of 100 to 1000 nM.

`COc1ccc(Nc2nc(Nc3cccc(OC)c3C)ncc2Cl)c(NS(C)(=O)=O)c1` [Example 54, N-(2-(5-chloro-2-(3-methoxy-2-methylphenylamino)pyrimidin-4-ylamino)-5-methoxyphenyl)methanesulfonamide]: the IC50 lay in the range of 100 to 1000 nM.

On to `COc1cc(OC)c(OC)cc1Nc1ncc(Br)c(Nc2ccccc2NS(C)(=O)=O)n1` [Example 31, N-(2-(5-bromo-2-(2,4,5-trimethoxyphenylamino)pyrimidin-4-ylamino)phenyl)methanesulfonamide], for which the IC50 was 100 to 1000 nM.

`COc1ccc(Nc2nc(Nc3ccc(OC)cc3OC)ncc2Cl)c(NS(C)(=O)=O)c1` [Example 34, N-(2-(5-chloro-2-(2,4-dimethoxyphenylamino)pyrimidin-4-ylamino)-5-methoxyphenyl)methanesulfonamide] had an IC50 of 100 to 1000 nM.

The compound `COc1ccc(Nc2nc(Nc3ccccc3OC)ncc2Cl)c(NS(C)(=O)=O)c1` [Example 51, N-(2-(5-chloro-2-(2-methoxyphenylamino)pyrimidin-4-ylamino)-5-methoxyphenyl)methanesulfonamide hydrochloride] displayed an IC50 of 100 to 1000 nM.

Regarding `COc1ccc(OCCO)cc1Nc1ncc(Cl)c(Nc2cccc(C)c2NS(C)(=O)=O)n1` [Example 118, N-(2-(5-chloro-2-(5-(2-hydroxyethoxy)-2-methoxyphenylamino)pyrimidin-4-ylamino)-6-methylphenyl)methanesulfonamide], the IC50 is 100 to 1000 nM.

For the compound `COc1ccc(Nc2nc(Nc3ccc(F)cc3OC)ncc2Cl)c(NS(C)(=O)=O)c1` [Example 43, N-(2-(5-chloro-2-(4-fluoro-2-methoxyphenylamino)pyrimidin-4-ylamino)-5-methoxyphenyl)methanesulfonamide], the IC50 lay in the range of 100 to 1000 nM.

As to `COc1ccc(Nc2nc(Nc3ccccc3F)ncc2Cl)c(NS(C)(=O)=O)c1` [Example 48, N-(2-(5-chloro-2-(2-fluorophenylamino)pyrimidin-4-ylamino)-5-methoxyphenyl)methanesulfonamide], the 50% inhibitory concentration (IC50) lay in the range of 100 to 1000 nM.

For the compound `COc1ccccc1Nc1ncc(F)c(Nc2ccccc2NS(C)(=O)=O)n1` [Example 8, N-(2-(5-fluoro-2-(2-methoxyphenylamino)pyrimidin-4-ylamino)phenyl)methanesulfonamide], the IC50 lay in the range of 1000 to 10000 nM.

The compound `COc1ccc(Nc2nc(Nc3ccc(OC)nc3OC)ncc2Cl)c(NS(C)(=O)=O)c1` [Example 36, N-(2-(5-chloro-2-(2,6-dimethoxypyridin-3-ylamino)pyrimidin-4-ylamino)-5-methoxyphenyl)methanesulfonamide] displayed an IC50 of 100 to 1000 nM.

Take `COc1ccc(Nc2nc(Nc3cc(C)ccc3F)ncc2Cl)c(NS(C)(=O)=O)c1` [Example 49, N-(2-(5-chloro-2-(2-fluoro-5-methylphenylamino)pyrimidin-4-ylamino)-5-methoxyphenyl)methanesulfonamide]: the 50% inhibitory concentration (IC50) lay in the range of 100 to 1000 nM.

Compound `COc1ccc(Nc2nc(Nc3nc(OC)ccc3Cl)ncc2Cl)c(NS(C)(=O)=O)c1` [Example 99, N-(2-(5-chloro-2-(3-chloro-6-methoxypyridin-2-ylamino)pyrimidin-4-ylamino)-5-methoxyphenyl)methanesulfonamide] showed an IC50 of 1000 to 10000 nM.

Take `COc1ccc(Nc2ncc(Cl)c(Nc3ccc(OC)cc3NS(C)(=O)=O)n2)c(C)c1` [Example 35, N-(2-(5-chloro-2-(4-methoxy-2-methylphenylamino)pyrimidin-4-ylamino)-5-methoxyphenyl)methanesulfonamide]: the IC50 was 100 to 1000 nM.

For the compound `COc1ccc(Nc2nc(Nc3cc(F)c(OC)cc3OC)ncc2Cl)c(NS(C)(=O)=O)c1` [Example 38, N-(2-(5-chloro-2-(5-fluoro-2,4-dimethoxyphenylamino)pyrimidin-4-ylamino)-5-methoxyphenyl)methanesulfonamide hydrochloride], the IC50 lay within 100 to 1000 nM.

`COc1ccc(Nc2nc(Nc3cc(C)c(OC)cc3OC)ncc2Cl)c(NS(C)(=O)=O)c1` [Example 39, N-(2-(5-chloro-2-(2,4-dimethoxy-5-methylphenylamino)pyrimidin-4-ylamino)-5-methoxyphenyl)methanesulfonamide]: the concentration for half-maximal inhibition (IC50) lay in the range of 100 to 1000 nM.

As for `COc1cc(OCCCN2CCCCC2)ccc1Nc1ncc(Br)c(Nc2ccccc2NS(C)(=O)=O)n1` [Example 28, N-(2-(5-bromo-2-(2-methoxy-4-(3-(piperidin-1-yl)propoxy)phenylamino)pyrimidin-4-ylamino)phenyl)methanesulfonamide], the IC50 was no more than 100 nM.

`COc1ccc(OCCO)cc1Nc1ncc(F)c(Nc2ccccc2NS(C)(=O)=O)n1` [Example 102, N-(2-(5-fluoro-2-(5-(2-hydroxyethoxy)-2-methoxyphenylamino)pyrimidin-4-ylamino)phenyl)methanesulfonamide] gave an IC50 of 1000 to 10000 nM.

The compound `CS(=O)(=O)Nc1ccccc1Nc1nc(Nc2ccccc2Cl)ncc1Br` [Example 18, N-(2-(5-bromo-2-(2-chlorophenylamino)pyrimidin-4-ylamino)phenyl)methanesulfonamide hydrochloride] returned an IC50 of 1000 to 10000 nM.

Compound `COc1ccc(Nc2nc(Nc3ccccc3C)ncc2Cl)c(NS(C)(=O)=O)c1` [Example 50, N-(2-(5-chloro-2-(o-tolylamino)pyrimidin-4-ylamino)-5-methoxyphenyl)methanesulfonamide hydrochloride] had an IC50 of 100 to 1000 nM.
